Data taken from patent US10633419B2, “Immunomodulators” (BRISTOL-MYERS SQUIBB COMPANY, priority 2014, dated 2020).
Positions of bridges follow the written chain, without caps; N, C: chain ends. Non-standard residues stand in square brackets, D forms with d. Residues, ends and D or L forms follow the SMILES beside them. Groups on a side chain read outwards from the residue. *: point of attachment. δOrn(Nα-Octadecanedioyl) = O=C(O)CCCCCCCCCCCCCCCCC(=O)N[C@@H](CCCN*)C(=O)O; Trp(1-CH2COOH) = N[C@@H](Cc1cn(CC(=O)O)c2ccccc12)C(=O)O; Phe(3,4,5-F3) = N[C@@H](Cc1cc(F)c(F)c(F)c1)C(=O)O; Phe(4-F) = N[C@@H](Cc1ccc(F)cc1)C(=O)O; d(cisHyp) = O=C(O)[C@H]1C[C@@H](O)CN1; Hyp = O=C(O)[C@@H]1C[C@@H](O)CN1; NMeF = CN[C@@H](Cc1ccccc1)C(=O)O; X30 = O=C1NC2CSC(CCCCC(=O)*)C2N1; Undecanoyl = CCCCCCCCCCC(=O)*; NMeNle = CCCC[C@H](NC)C(=O)O; PEG4 = NCCOCCOCCOCCOCCC(=O)O; Pip = O=C(O)[C@@H]1CCCCN1; dPip = O=C(O)[C@H]1CCCCN1; NMeA = CN[C@@H](C)C(=O)O; Dab = NCC[C@H](N)C(=O)O; Dap = NC[C@H](N)C(=O)O

molecular target: T1, PD-L1 (Homo sapiens, UniProt Q9NZQ7); assay: PD-1/PD-L1 Homogenous Time-Resolved Fluorescence (HTRF) binding assay (PD-1-Ig/PD-L1-His); conditions: inhibition of PD-1-Ig binding to PD-L1-TVMV-His; value given as number; read-out: HTRF IC50
T1 construct: hPDL1(19-239)-TVMV-His; made in house; host or cells: HEK293T
T1 sequence (Q9NZQ7 with tags, fused parts or gaps): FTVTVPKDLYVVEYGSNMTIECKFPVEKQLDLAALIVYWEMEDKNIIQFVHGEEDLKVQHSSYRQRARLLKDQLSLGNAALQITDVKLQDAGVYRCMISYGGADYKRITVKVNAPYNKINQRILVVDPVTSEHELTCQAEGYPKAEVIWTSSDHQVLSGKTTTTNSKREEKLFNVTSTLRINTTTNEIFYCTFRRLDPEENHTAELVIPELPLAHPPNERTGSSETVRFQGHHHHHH
Outline: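 Inhibitors pre-incubated 15 min with PD-L1-His (10 nM final), then PD-1-Ig (20 nM final) added for 15 min in dPBS/0.1% BSA/0.05% Tween-20. Eu-cryptate anti-Ig (1 nM) and APC anti-His (20 nM) added, 30 min equilibration, 665/620 nm HTRF ratio read.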

Row | IC50 | SMILES
1 | 0.79 µM | CCCC[C@H]1C(=O)N(C)[C@@H](CCCC)C(=O)N[C@@H](CC(C)C)C(=O)N[C@H](C(=O)NCC(=O)N[C@@H](Cc2cn(CC[C@H](NC(=O)CCCCCCCCCCCCCCCCC(=O)O)C(=O)O)nn2)C(N)=O)CSCC(=O)N[C@@H](Cc2ccc(O)cc2)C(=O)N(C)[C@@H](C)C(=O)N[C@@H](CC(N)=O)C(=O)N2CCC[C@H]2C(=O)N[C@@H](CN)C(=O)N[C@@H](CC(C)C)C(=O)N2C[C@H](O)C[C@H]2C(=O)N[C@@H](Cc2c[nH]c3ccccc23)C(=O)N[C@@H](CCN)C(=O)N[C@@H](Cc2cn(CC(=O)O)c3ccccc23)C(=O)N1C [Example 14096]

same assay, conditions: inhibition of PD-1-Ig binding to PD-L1-TVMV-His; value given as range class; read-out: HTRF IC50

Row | IC50 | SMILES
2 | 0.01 to 0.099 µM | CCCC[C@H]1C(=O)N(C)[C@@H](CCCC)C(=O)N[C@@H](CCC(=O)O)C(=O)N[C@H](C(=O)NCC(=O)N[C@@H](Cc2cn(CC[C@H](NC(=O)CCCCCCCCCCCCCCCCC(=O)O)C(=O)O)nn2)C(=O)O)CSCC(=O)N[C@@H](Cc2ccc(O)cc2)C(=O)N(C)[C@@H](C)C(=O)N[C@@H](CC(N)=O)C(=O)N2CCC[C@H]2C(=O)N[C@@H](CN)C(=O)N[C@@H](CC(C)C)C(=O)N2C[C@H](O)C[C@H]2C(=O)N[C@@H](Cc2c[nH]c3ccccc23)C(=O)N[C@@H](CCN)C(=O)N[C@@H](Cc2cn(CC(=O)O)c3ccccc23)C(=O)N1C [Example 13125]
3 | 0.01 to 0.099 µM | CCCCCCCCCCC(=O)NCCCC[C@H](NC(=O)[C@H](CC(=O)O)NC(=O)CNC(=O)[C@@H]1CSCC(=O)N[C@@H](Cc2ccc(O)cc2)C(=O)N(C)[C@@H](C)C(=O)N[C@@H](CC(N)=O)C(=O)N2CCC[C@H]2C(=O)N[C@@H](CCN)C(=O)N[C@@H](CC(C)C)C(=O)N2C[C@H](O)C[C@H]2C(=O)N[C@@H](Cc2c[nH]c3ccccc23)C(=O)N[C@@H](CO)C(=O)N[C@@H](Cc2c[nH]c3ccccc23)C(=O)N(C)[C@@H](CCCC)C(=O)N(C)[C@@H](CCCC)C(=O)N[C@@H](CCCNC(=N)N)C(=O)N1)C(N)=O [Example 11005] ({CH2CO}-Y[NMeA]NP[Dab]L[Hyp]WSW[NMeNle][NMeNle]RCGDK(Undecanoyl)-NH2; thioether N-14)
4 | 0.0003 to 0.0099 µM | CCCC[C@H]1C(=O)N2C[C@H](O)C[C@@H]2C(=O)N[C@@H](CC(=O)O)C(=O)N[C@@H](C(C)C)C(=O)N(C)[C@@H](Cc2ccccc2)C(=O)N[C@@H](Cc2ccc(O)cc2)C(=O)N2CCCC[C@@H]2C(=O)N[C@@H](Cc2c[nH]c3ccccc23)C(=O)N[C@@H](Cc2ccc(O)cc2)C(=O)N[C@@H](CC(C)C)C(=O)N[C@H](C(=O)NCC(=O)NCC(=O)NCC(=O)N[C@@H](CCCCNC(=O)CCOCCOCCOCCOCCNC(=O)CCCCC2SCC3NC(=O)NC32)C(N)=O)CSCC(=O)N[C@@H](Cc2cc(F)c(F)c(F)c2)C(=O)N(C)[C@@H](Cc2ccccc2)C(=O)N1C (stereo partly drawn) [Example 3626] ({CH2CO}-[Phe(3,4,5-F3)][NMeF][NMeNle][d(cisHyp)]DV[NMeF]Y[dPip]WYLCGGGK([PEG4-X30])-NH2; thioether N-13)
5 | 0.01 to 0.099 µM | CCCC[C@H]1C(=O)N(C)[C@@H](CCCC)C(=O)N[C@@H](CCC(=O)O)C(=O)N[C@H](C(=O)NCC(=O)N[C@@H](Cc2cn(CC[C@H](NC(=O)CCCCCCCCCCCCCCCCC(=O)O)C(=O)O)nn2)C(=O)O)CSCC(=O)N[C@@H](Cc2ccc(OC)cc2)C(=O)N2CCCC[C@H]2C(=O)N[C@@H](CC(=O)O)C(=O)N2CCC[C@H]2C(=O)N[C@@H](CN)C(=O)N[C@@H](CCC(N)=O)C(=O)N2C[C@H](O)C[C@H]2C(=O)N[C@@H](Cc2c[nH]c3ccccc23)C(=O)N[C@@H](CCN)C(=O)N[C@@H](Cc2cn(CC(=O)O)c3ccccc23)C(=O)N1C [Example 14121]
6 | 0.01 to 0.099 µM | CCCC[C@H]1C(=O)N(C)[C@@H](CCCC)C(=O)N[C@@H](CC(C)C)C(=O)N[C@H](C(=O)NCC(=O)N[C@@H](CC(=O)NCCC[C@H](NC(=O)CCCCCCCCCCCCCCCCC(=O)O)C(=O)O)C(=O)O)CSCC(=O)N[C@@H](Cc2ccc(F)cc2)C(=O)N2CCCC[C@H]2C(=O)N[C@@H](CC(=O)O)C(=O)N2CCC[C@H]2C(=O)N[C@@H](CN)C(=O)N[C@@H](CC(C)C)C(=O)N2C[C@H](O)C[C@H]2C(=O)N[C@@H](Cc2c[nH]c3ccccc23)C(=O)N[C@@H](CCN)C(=O)N[C@@H](Cc2cn(CC(=O)O)c3ccccc23)C(=O)N1C [Example 13145] ({CH2CO}-[Phe(4-F)][Pip]DP[Dap]L[Hyp]W[Dab][Trp(1-CH2COOH)][NMeNle][NMeNle]LCGD(δOrn(Nα-Octadecanedioyl))-OH; thioether N-14)
